Results on eleven compounds are retold here after patent US20220298107A1, “SUBSTITUTED UREA DIHYDROOROTATE DEHYDROGENASE INHIBITORS” (Janssen Biotech, Inc., priority 2019, published 2022).

In general, EC50 refers to the midpoint of the concentration-response curve.

In one test the target is human DHODH (Homo sapiens, UniProt Q02127). The experiment in a line: biochemical. As for the experimental part:
To detect DHODH enzyme activities, dichloroindophenol (DCIP) is added as the final electron acceptor in the assay. DCIP can accept electrons from the reduced coenzyme Q generated in the assay, or from dihydroorotate (DHO) via flavin mononucleotide (FMN) by binding presumably to the ubiquinone pocket. […] The assay buffer contained […], pH 7.5, 150 mM NaCl, 0.5 mM EDTA, and 0.1% Triton X-100 in MilliQ water. Substrate consisting of 20 mM DHO, 5 mM CoQ6, and 1 mM DCIP in assay buffer, initiates the reaction. […] Absorbance measurements were obtained using the BMG Phera Star plate-reading spectrophotomer. Purified human DHODH was purchased from Proteros (cat. No. PR-0044). Chemicals were purchased from Sigma-Aldrich, Teknova, and Avanti Polar Lipids. Liquid handling was performed using Labcyte Echo and Formulatrix Tempest.

In a further test the test system is MOLM-13 cells. Kind of test: MOLM-13 Cellular Assay. Particulars: Homo sapiens, MOLM-13, 72 h, read-out: MOLM-13 Cellular Assay EC50 (nM). It counts as cell-based. As for the experimental part: MOLM-13 cells were obtained from DSMZ and were maintained in RPMI 1640+Glutamax+25 mM HEPES (Invitrogen, catalog number 72400) supplemented with 10% heat inactivated fetal bovine serum (FBS; Invitrogen, catalog number 16140). The day prior to assay set-up, cells were pelleted, resuspended in fresh media, counted, and cells were plated at 0.4×10^6 cell/mL in a T150 flask. On the day of the assay, cells were pelleted, resuspend in fresh media, counted and seeded at 5,000 cells/well in white opaque 96-well tissue culture treated microplates (Perkin Elmer, catalog number 6005680). Cells were exposed to different concentrations of test compounds at 37° C., 5% CO2 for 72 hours immediately after seeding. Cell viability was acquired on a Perkin Elmer Envision 2104 multilabel reader using the CellTiter-Glo assay (Promega) according to the manufacturer's instructions.

Chain of human DHODH (Q02127 whole entry): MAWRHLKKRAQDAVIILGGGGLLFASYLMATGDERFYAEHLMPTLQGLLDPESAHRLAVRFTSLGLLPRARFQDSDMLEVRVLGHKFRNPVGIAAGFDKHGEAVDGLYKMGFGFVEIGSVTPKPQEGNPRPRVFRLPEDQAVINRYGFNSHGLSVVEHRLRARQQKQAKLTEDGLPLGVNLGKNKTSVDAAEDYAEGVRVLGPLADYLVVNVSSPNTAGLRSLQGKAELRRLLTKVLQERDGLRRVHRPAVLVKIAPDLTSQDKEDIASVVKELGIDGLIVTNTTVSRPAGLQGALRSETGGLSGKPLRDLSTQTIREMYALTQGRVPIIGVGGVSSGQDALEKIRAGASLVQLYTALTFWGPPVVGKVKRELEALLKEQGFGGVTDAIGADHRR

As for `C[C@H](Oc1cc(NC(=O)N2CCCCC2)c(F)cc1C(=O)Nc1c(F)cccc1Cl)C(F)(F)F` [Example 2, (S)-N-(4-((2-Chloro-6-fluorophenyl)carbamoyl)-2-fluoro-5-((1,1,1-trifluoropropan-2-yl)oxy)phenyl)piperidine-1-carboxamide], the EC50 amounted to 20 nM at human DHODH and 12 nM in the test on MOLM-13 cells.
Regarding `CCN(CCO)C(=O)Nc1cc(O[C@@H](C)C(F)(F)F)c(C(=O)Nc2c(F)cccc2Cl)cc1F` [Example 3, (S)-N-(2-Chloro-6-fluorophenyl)-4-(3-ethyl-3-(2-hydroxyethyl)ureido)-5-fluoro-2-((1,1,1-trifluoropropan-2-yl)oxy)benzamide], the EC50 in the test on MOLM-13 cells is 1.2 nM.
`CCN(C(=O)Nc1cc(O[C@@H](C)C(F)(F)F)c(C(=O)Nc2c(F)cccc2Cl)cc1F)C(C)C` [Example 4, (S)-N-(2-Chloro-6-fluorophenyl)-4-(3-ethyl-3-isopropylureido)-5-fluoro-2-((1,1,1-trifluoropropan-2-yl)oxy)benzamide]: the EC50 worked out at 7.3 nM at human DHODH and 2.1 nM in the test on MOLM-13 cells.
Taken in the same sequence, the figures for `CCN(CCOC)C(=O)Nc1cc(O[C@@H](C)C(F)(F)F)c(C(=O)Nc2c(F)cccc2Cl)cc1F` [Example 6, (S)-N-(2-Chloro-6-fluorophenyl)-4-(3-ethyl-3-(2-methoxyethyl)ureido)-5-fluoro-2-((1,1,1-trifluoropropan-2-yl)oxy)benzamide] were 3.6 nM and 1.2 nM.
`CCN(CC(F)F)C(=O)Nc1cc(O[C@@H](C)C(F)(F)F)c(C(=O)Nc2c(F)cccc2Cl)cc1F` [Example 7, (S)-N-(2-chloro-6-fluorophenyl)-4-(3-(2,2-difluoroethyl)-3-ethylureido)-5-fluoro-2-((1,1,1-trifluoropropan-2-yl)oxy)benzamide]: the concentration giving a half-maximal response (EC50) in the test with MOLM-13 cells came to 1.9 nM.
On human DHODH, `CCCN(C)C(=O)Nc1cc(O[C@@H](C)C(F)(F)F)c(C(=O)Nc2c(F)cccc2Cl)cc1F` [Example 14, (S)-N-(2-Chloro-6-fluorophenyl)-5-fluoro-4-(3-methyl-3-propylureido)-2-((1,1,1-trifluoropropan-2-yl)oxy)benzamide] displayed a 50% effective concentration (EC50) of 7.9 nM.
In the case of `CCCN(CC)C(=O)Nc1cc(O[C@@H](C)C(F)(F)F)c(C(=O)Nc2c(F)cccc2Cl)cc1F` [Example 15, (S)-N-(2-Chloro-6-fluorophenyl)-4-(3-ethyl-3-propylureido)-5-fluoro-2-((1,1,1-trifluoropropan-2-yl)oxy)benzamide], at human DHODH, the response was half-maximal at 20 nM (EC50).
Consider `C[C@H](Oc1cc(NC(=O)N(C)CCF)c(F)cc1C(=O)Nc1c(F)cccc1Cl)C(F)(F)F` [Example 16, (S)-N-(2-chloro-6-fluorophenyl)-5-fluoro-4-(3-(2-fluoroethyl)-3-methylureido)-2-((1,1,1-trifluoropropan-2-yl)oxy)benzamide], for which, on human DHODH, the EC50 amounted to 4.7 nM.
On the same count and under the same terms, the same measure for `C[C@H](Oc1cc(NC(=O)N(C)CCC#N)c(F)cc1C(=O)Nc1c(F)cccc1Cl)C(F)(F)F` [Example 17, (S)-N-(2-Chloro-6-fluorophenyl)-4-(3-(2-cyanoethyl)-3-methylureido)-5-fluoro-2-((1,1,1-trifluoropropan-2-yl)oxy)benzamide]: 200 nM; for `C[C@H](Oc1cc(NC(=O)N2CCC2)c(F)cc1C(=O)Nc1c(F)cccc1Cl)C(F)(F)F` [Example 20, (S)-N-(4-((2-Chloro-6-fluorophenyl)carbamoyl)-2-fluoro-5-((1,1,1-trifluoropropan-2-yl)oxy)phenyl)azetidine-1-carboxamide]: 2.8 nM; for `C[C@H](Oc1cc(NC(=O)N2CC(F)C2)c(F)cc1C(=O)Nc1c(F)cccc1Cl)C(F)(F)F` [Example 22, (S)-N-(4-((2-Chloro-6-fluorophenyl)carbamoyl)-2-fluoro-5-((1,1,1-trifluoropropan-2-yl)oxy)phenyl)-3-fluoroazetidine-1-carboxamide]: 7.2 nM.
